This note sets out measurements from US11725012B2, “Imidazo[1,5-a]pyrazine derivatives as PI3K δ inhibitors” (priority 2016, dated 2023).

Read-outs that look alike come from different tables or passages of the source.

What all share (assay type): biochemical
Assay [1] has as its target recombinant PI3K (p110α/p85α) (Homo sapiens, UniProt P42336). Briefly: PI3Kα ADP-Glo kinase assay.
For the next assay, the target named is PI3K (p110β/p85α) (Homo sapiens, UniProt P42338). In words: PI3Kβ ADP-Glo kinase assay.
Assay [2] addresses recombinant PI3K (p110δ/p85α) (Homo sapiens, UniProt O00329). Briefly: PI3Kδ ADP-Glo kinase assay. As to the method: Compounds disclosed herein were tested for inhibition of PI3Kδ kinase activity using commercial ADP-Glo™ Kinase Assay (Promega Corporation) and following the manufacture's instruction. Briefly, recombinant PI3K (p110δ/p85α) enzyme, lipid kinase substrate and a serial dilution of compounds disclosed herein were incubated for 0.5 hr at room temperature. ATP was added to initiate the kinase reaction. After incubation for 1 hr at room temperature, ADP-Glo™ reagent was added to terminate the kinase reaction and deplete the remaining ATP. After incubation for 1 hr at room temperature, kinase detection reagent was added to simultaneously convert ADP to ATP and allow the newly synthesized ATP to be measured using a luciferase/luciferin reaction. After incubation for 0.5 hr at room temperature, the luminescence generated was measured on a PHERAstar FS plate reader (BMG LABTECH), The residual enzyme activity in presence of increasing concentrations of compounds was calculated based on the luminescence. The IC50 for each compound was derived from fitting the data to the four-parameter logistic equation by Graphpad Prism software.

For the next assay, the target named is PI3K (p110γ) (Homo sapiens, UniProt P48736). In words: PI3Kγ ADP-Glo kinase assay.
The mark [3] stands for this setting: read-out: PI3Kα Enzyme activity IC50.
Where [4] appears, read: read-out: PI3Kβ Enzyme activity IC50.
The mark [5] stands for this setting: read-out: PI3Kδ Enzyme activity IC50.
Setting [6] is: read-out: PI3Kγ Enzyme activity IC50.

Chain of recombinant PI3K (p110α/p85α) (P42336 whole entry): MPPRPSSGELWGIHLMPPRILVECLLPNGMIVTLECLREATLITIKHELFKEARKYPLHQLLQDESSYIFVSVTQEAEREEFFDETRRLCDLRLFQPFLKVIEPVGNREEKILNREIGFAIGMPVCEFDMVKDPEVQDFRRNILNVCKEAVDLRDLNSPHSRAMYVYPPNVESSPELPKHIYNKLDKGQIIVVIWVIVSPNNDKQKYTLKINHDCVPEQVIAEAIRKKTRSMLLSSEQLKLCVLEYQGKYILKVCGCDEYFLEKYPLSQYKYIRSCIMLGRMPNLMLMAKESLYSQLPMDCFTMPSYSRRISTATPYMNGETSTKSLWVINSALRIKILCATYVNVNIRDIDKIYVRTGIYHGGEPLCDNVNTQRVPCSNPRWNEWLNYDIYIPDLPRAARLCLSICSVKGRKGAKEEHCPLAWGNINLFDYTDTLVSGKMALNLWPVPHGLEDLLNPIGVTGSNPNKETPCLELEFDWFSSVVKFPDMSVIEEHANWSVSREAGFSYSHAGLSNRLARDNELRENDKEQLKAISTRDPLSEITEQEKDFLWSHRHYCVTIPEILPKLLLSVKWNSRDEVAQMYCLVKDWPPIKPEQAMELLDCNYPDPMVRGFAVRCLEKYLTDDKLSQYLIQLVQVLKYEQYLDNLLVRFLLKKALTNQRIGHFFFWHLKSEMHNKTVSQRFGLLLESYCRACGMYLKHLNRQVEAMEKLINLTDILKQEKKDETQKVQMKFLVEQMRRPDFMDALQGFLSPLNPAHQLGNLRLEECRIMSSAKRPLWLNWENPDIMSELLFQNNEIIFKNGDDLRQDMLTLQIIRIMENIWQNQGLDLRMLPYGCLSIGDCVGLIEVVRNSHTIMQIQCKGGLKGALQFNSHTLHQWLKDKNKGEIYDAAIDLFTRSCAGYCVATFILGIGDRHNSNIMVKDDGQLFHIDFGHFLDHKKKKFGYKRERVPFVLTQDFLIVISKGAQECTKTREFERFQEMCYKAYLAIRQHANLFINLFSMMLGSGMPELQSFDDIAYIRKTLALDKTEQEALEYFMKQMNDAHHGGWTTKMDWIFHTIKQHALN
Chain of recombinant PI3K (p110α/p85α) (P27986 whole entry partner): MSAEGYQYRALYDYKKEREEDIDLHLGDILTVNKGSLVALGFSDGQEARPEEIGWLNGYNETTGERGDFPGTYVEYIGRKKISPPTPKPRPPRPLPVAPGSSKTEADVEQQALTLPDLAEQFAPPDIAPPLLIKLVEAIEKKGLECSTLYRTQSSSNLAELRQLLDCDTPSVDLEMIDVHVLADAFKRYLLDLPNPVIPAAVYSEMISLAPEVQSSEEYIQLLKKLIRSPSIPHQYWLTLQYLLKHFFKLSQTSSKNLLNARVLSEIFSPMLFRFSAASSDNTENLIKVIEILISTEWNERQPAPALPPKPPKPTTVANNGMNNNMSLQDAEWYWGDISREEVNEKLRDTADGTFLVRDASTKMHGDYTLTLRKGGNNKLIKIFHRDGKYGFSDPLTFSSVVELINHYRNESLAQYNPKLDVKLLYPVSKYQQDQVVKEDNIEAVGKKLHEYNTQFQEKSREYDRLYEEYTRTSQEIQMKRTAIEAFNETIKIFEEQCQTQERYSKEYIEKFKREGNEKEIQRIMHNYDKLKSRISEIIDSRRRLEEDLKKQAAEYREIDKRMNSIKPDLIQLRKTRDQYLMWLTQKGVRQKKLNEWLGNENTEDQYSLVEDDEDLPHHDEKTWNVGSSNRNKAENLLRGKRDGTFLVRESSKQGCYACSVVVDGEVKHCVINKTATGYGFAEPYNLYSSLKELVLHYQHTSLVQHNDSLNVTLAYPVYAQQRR
Chain of PI3K (p110γ) (P48736 whole entry): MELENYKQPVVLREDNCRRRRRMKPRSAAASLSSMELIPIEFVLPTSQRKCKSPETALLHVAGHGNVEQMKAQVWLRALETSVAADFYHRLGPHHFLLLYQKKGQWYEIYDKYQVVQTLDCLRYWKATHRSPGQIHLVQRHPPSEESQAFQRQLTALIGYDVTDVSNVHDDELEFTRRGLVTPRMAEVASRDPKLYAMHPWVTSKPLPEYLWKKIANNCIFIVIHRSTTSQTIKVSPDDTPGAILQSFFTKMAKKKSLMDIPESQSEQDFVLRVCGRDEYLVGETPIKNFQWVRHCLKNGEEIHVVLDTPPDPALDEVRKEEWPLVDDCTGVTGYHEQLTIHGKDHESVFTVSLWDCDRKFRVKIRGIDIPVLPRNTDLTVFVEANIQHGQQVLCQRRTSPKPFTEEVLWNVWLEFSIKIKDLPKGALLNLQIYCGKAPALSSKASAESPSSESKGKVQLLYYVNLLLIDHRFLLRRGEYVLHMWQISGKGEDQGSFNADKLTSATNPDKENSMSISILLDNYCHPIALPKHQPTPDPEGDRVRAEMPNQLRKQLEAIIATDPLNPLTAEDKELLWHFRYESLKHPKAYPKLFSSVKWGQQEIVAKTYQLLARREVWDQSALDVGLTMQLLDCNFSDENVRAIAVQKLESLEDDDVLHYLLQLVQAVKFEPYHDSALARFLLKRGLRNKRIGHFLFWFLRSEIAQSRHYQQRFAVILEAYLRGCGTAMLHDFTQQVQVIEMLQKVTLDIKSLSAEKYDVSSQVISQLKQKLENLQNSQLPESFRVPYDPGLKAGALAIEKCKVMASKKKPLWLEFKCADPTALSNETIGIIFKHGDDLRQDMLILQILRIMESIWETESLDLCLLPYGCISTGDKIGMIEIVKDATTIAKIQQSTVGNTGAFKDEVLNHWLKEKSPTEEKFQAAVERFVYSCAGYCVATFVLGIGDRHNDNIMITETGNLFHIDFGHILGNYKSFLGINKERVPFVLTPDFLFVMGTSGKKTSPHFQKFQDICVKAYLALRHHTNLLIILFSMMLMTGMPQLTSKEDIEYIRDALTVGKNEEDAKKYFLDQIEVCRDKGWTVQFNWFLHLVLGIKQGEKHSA
Chain of PI3K (p110β/p85α) (P42338 whole entry): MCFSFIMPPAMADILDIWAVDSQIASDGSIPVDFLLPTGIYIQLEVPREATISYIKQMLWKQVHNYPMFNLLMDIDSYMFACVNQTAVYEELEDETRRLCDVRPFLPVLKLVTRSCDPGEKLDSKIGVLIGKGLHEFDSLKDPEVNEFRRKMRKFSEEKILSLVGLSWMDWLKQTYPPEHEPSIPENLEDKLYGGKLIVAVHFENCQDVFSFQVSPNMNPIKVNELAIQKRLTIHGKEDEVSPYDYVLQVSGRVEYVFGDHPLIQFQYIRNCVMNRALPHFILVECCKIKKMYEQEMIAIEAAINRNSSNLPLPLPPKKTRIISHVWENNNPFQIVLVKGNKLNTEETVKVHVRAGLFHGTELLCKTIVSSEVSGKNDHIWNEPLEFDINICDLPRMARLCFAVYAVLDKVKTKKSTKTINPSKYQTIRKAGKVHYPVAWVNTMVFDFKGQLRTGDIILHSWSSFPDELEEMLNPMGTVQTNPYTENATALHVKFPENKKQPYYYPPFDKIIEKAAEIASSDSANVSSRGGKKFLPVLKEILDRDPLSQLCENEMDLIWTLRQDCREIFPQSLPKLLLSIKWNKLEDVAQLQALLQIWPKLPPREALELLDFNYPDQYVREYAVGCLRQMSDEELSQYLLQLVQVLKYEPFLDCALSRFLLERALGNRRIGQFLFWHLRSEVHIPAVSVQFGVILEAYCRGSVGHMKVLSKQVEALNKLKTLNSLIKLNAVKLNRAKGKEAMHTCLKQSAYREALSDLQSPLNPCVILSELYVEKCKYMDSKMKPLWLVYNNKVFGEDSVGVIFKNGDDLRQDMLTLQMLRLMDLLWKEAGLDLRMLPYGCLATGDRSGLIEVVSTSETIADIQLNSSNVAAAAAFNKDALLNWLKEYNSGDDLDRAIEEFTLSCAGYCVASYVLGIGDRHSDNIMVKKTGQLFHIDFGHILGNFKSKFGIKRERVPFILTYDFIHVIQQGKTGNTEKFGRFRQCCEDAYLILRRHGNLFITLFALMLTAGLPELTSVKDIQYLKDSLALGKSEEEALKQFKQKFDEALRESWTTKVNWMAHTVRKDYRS
Chain of PI3K (p110β/p85α) (P27986 whole entry partner): as the sequence (P27986 whole entry partner) above
Chain of recombinant PI3K (p110δ/p85α) (O00329 whole entry): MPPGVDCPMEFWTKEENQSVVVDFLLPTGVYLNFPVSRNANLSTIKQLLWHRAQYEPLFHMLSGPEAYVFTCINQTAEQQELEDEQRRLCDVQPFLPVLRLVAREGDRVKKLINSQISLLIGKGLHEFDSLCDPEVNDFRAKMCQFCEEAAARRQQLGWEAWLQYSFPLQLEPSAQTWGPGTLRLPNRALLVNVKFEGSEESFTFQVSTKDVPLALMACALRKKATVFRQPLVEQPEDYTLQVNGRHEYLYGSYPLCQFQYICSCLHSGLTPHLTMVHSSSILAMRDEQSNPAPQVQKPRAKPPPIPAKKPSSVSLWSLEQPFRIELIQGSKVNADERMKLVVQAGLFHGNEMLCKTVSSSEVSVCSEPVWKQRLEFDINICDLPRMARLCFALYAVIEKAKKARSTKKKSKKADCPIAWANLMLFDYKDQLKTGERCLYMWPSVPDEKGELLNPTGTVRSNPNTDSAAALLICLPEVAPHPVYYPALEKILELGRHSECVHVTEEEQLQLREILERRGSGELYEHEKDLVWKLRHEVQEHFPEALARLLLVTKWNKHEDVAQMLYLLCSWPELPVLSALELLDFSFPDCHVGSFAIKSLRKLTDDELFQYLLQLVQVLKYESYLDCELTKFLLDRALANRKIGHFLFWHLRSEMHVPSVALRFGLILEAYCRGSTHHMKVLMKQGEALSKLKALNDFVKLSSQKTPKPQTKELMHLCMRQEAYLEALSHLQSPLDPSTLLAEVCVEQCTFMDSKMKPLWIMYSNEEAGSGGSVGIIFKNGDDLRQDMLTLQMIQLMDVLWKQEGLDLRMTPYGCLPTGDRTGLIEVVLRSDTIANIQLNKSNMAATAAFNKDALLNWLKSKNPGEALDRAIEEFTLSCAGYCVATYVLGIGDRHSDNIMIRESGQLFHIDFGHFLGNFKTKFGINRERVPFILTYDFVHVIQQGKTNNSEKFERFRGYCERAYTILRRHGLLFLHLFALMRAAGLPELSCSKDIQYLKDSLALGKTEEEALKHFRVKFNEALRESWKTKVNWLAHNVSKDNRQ
Chain of recombinant PI3K (p110δ/p85α) (P27986 whole entry partner): as the sequence (P27986 whole entry partner) above

Consider `CC(C)Oc1c(C(C)c2nc(Cl)c3c(N)nccn23)cc(Cl)c(F)c1C1CNC(=O)C1` (single isomer, unassigned) [Compound 48A, 4-(3-(1-(8-amino-1-chloroimidazo[1,5-a]pyrazin-3-yl)ethyl)-5-chloro-6-fluoro-2-isopropoxyphenyl)pyrrolidin-2-one], for which the IC50 was determined as 4800 nM in assay [1] (setting [3]), 440 nM at PI3K (p110β/p85α) (setting [4]), 0.4 nM in assay [2] (setting [5]) and 800 nM on PI3K (p110γ) (setting [6]).
For the molecule `CCOc1c(C(C)c2nc(Cl)c3c(N)nccn23)cc(Cl)c(F)c1C1CCOCC1` (single isomer, unassigned) [Compound 49A, 1-chloro-3-(1-(5-chloro-2-ethoxy-4-fluoro-3-(tetrahydro-2H-pyran-4-yl)phenyl)ethyl)imidazo[1,5-a]pyrazin-8-amine], the IC50 in assay [1] (setting [3]) amounted to 2100 nM; at PI3K (p110β/p85α) (setting [4]), 260 nM; in assay [2] (setting [5]) it was 0.49 nM; at PI3K (p110γ) (setting [6]) it was 440 nM.
For the molecule `CCOc1c(C(C)c2nc(Cl)c3c(N)nccn23)cc(Cl)c(C)c1N1CCOCC1` (single isomer, unassigned) [Compound 51A, 1-chloro-3-(1-(5-chloro-2-ethoxy-4-methyl-3-morpholinophenyl)ethyl)imidazo[1,5-a]pyrazin-8-amine], the half-inhibitory concentration (IC50) in assay [1] (setting [3]) was 2100 nM; at PI3K (p110β/p85α) (setting [4]), 480 nM; in assay [2] (setting [5]), 0.79 nM; on PI3K (p110γ) (setting [6]) it was 1200 nM.
On to `Cc1nc(C(C)c2cc(Cl)c(F)c(-c3ccc(C#N)nc3)c2OC(C)C)n2ccnc(N)c12` (single isomer, unassigned) [Compound 59A, 5-(3-(1-(8-amino-1-methylimidazo[1,5-a]pyrazin-3-yl)ethyl)-5-chloro-6-fluoro-2-isopropoxyphenyl)picolinonitrile], for which the concentration for half-maximal inhibition (IC50) in assay [1] (setting [3]) turned out to be 6300 nM; at PI3K (p110β/p85α) (setting [4]), 1400 nM; in assay [2] (setting [5]), 1.2 nM; on PI3K (p110γ) (setting [6]), 2700 nM.
On to `CCOc1c(C(C)c2nc(Cl)c3c(N)nccn23)cc(Cl)c(C)c1-c1ccc(C)nc1` (stereo not drawn) [Compound 8, 1-chloro-3-(1-(5-chloro-2-ethoxy-4-methyl-3-(6-methylpyridin-3-yl)phenyl)ethyl) imidazo[1,5-a]pyrazin-8-amine], for which the IC50 in assay [1] (setting [3]) worked out at 1400 nM; at PI3K (p110β/p85α) (setting [4]), 350 nM; in assay [2] (setting [5]), 1.1 nM; at PI3K (p110γ) (setting [6]), 260 nM.
Consider `CCOc1c([C@H](C)c2nc(Cl)c3c(N)nccn23)cc(Cl)c(C)c1-c1ccc(C)nc1` [Compound 8A], for which the IC50 in assay [1] (setting [3]) was 1300 nM; on PI3K (p110β/p85α) (setting [4]) it was 580 nM; in assay [2] (setting [5]), 0.51 nM; on PI3K (p110γ) (setting [6]), 300 nM.
As to `CCOc1c(C(C)c2nc(-c3cccc(O)c3)c3c(N)nccn23)cc(Cl)c(C)c1-c1ccc(C(F)(F)F)nc1` (stereo not drawn) [Compound 10, 3-(8-amino-3-(1-(5-chloro-2-ethoxy-4-methyl-3-(6-(trifluoromethyl)pyridin-3-yl)phenyl)ethyl)imidazo[1,5-a]pyrazin-1-yl)phenol], the half-inhibitory concentration (IC50) is 3200 nM in assay [1] (setting [3]), 2700 nM at PI3K (p110β/p85α) (setting [4]), 9.1 nM in assay [2] (setting [5]) and 1500 nM at PI3K (p110γ) (setting [6]).
On to `CCOc1c([C@H](C)c2nc(Cl)c3c(N)nccn23)cc(Cl)c(C)c1-c1ccc(C(=O)N(C)C)nc1` [Compound 11, (S)-5-(3-(1-(8-amino-1-chloroimidazo[1,5-a]pyrazin-3-yl)ethyl)-5-chloro-2-ethoxy-6-methylphenyl)-N,N-dimethylpicolinamide], for which the IC50 in assay [1] (setting [3]) stood at 540 nM; at PI3K (p110β/p85α) (setting [4]), 360 nM; in assay [2] (setting [5]), 0.54 nM; at PI3K (p110γ) (setting [6]), 190 nM.
For `CCOc1c([C@H](C)c2nc(Cl)c3c(N)nccn23)cc(Cl)c(C)c1-c1ccc(C(=O)O)nc1` [Compound 12], in that order: 1300 nM, 870 nM, 1.7 nM and 67 nM.
Take `CCOc1c(C(C)c2nc(Cl)c3c(N)nccn23)cc(Cl)c(F)c1-c1ccc(C(=O)N(C)C)nc1` (stereo not drawn) [Compound 13, 5-(3-(1-(8-amino-1-chloroimidazo[1,5-a]pyrazin-3-yl)ethyl)-5-chloro-2-ethoxy-6-fluorophenyl)-N,N-dimethylpicolinamide]: the half-maximal inhibitory concentration (IC50) turned out to be 1200 nM in assay [1] (setting [3]), 400 nM at PI3K (p110β/p85α) (setting [4]), 1.2 nM in assay [2] (setting [5]) and 480 nM on PI3K (p110γ) (setting [6]).
For `CCOc1c(C(C)c2nc(Cl)c3c(N)nccn23)cc(Cl)c(C)c1-c1ccc(=O)[nH]c1` (stereo not drawn) [Compound 15, 5-(3-(1-(8-amino-1-chloroimidazo[1,5-a]pyrazin-3-yl)ethyl)-5-chloro-2-ethoxy-6-methylphenyl)pyridin-2(1H)-one], in that order: 830 nM, 320 nM, 1.2 nM and 320 nM.
For `CC(C)Oc1c(C(C)c2nc(Cl)c3c(N)nccn23)cc(Cl)c(F)c1-c1ccc(C(N)=O)nc1` (stereo not drawn) [Compound 17, 5-(3-(1-(8-amino-1-chloroimidazo[1,5-a]pyrazin-3-yl)ethyl)-5-chloro-6-fluoro-2-isopropoxyphenyl)picolinamide], in that order: 3100 nM, 1600 nM, 1.5 nM and 1900 nM.
For `CC(C)Oc1c([C@H](C)c2nc(Cl)c3c(N)nccn23)cc(Cl)c(F)c1-c1ccc(C(N)=O)nc1` [Compound 17B], in that order: 970 nM, 670 nM, 0.28 nM and 520 nM.
Turning to `CC(C)Oc1c(C(C)c2nc(Cl)c3c(N)nccn23)cc(Cl)c(F)c1-c1ccc(C(=O)O)nc1` (stereo not drawn) [Compound 18, 5-(3-(1-(8-amino-1-chloroimidazo[1,5-a]pyrazin-3-yl)ethyl)-5-chloro-6-fluoro-2-isopropoxyphenyl)picolinic Acid], the IC50 amounted to 7100 nM in assay [1] (setting [3]), 1100 nM on PI3K (p110β/p85α) (setting [4]), 1.3 nM in assay [2] (setting [5]) and 340 nM on PI3K (p110γ) (setting [6]).
For `CC(C)Oc1c([C@H](C)c2nc(Cl)c3c(N)nccn23)cc(Cl)c(F)c1-c1ccc(C(=O)O)nc1` [Compound 18A], in that order: 4600 nM, 190 nM, 0.56 nM and 160 nM.
Take `COc1c(C(C)c2nc(Br)c3c(N)nccn23)cc(Cl)c(C)c1-c1ccc(C)nc1` (stereo not drawn) [Compound 19, 1-bromo-3-(1-(5-chloro-2-methoxy-4-methyl-3-(6-methylpyridin-3-yl)phenyl)ethyl) imidazo[1,5-a]pyrazin-8-amine]: the IC50 came out at 580 nM in assay [1] (PI3Kα Enzyme activity IC50), 180 nM against PI3K (p110β/p85α) (PI3Kβ Enzyme activity IC50), 1.3 nM in assay [2] (PI3Kδ Enzyme activity IC50) and 210 nM at PI3K (p110γ) (PI3Kγ Enzyme activity IC50).
Consider `COc1ccc(-c2c(C)c(Cl)cc(C(C)c3nc(Br)c4c(N)nccn34)c2OC)cn1` (stereo not drawn) [Compound 20, 1-bromo-3-(1-(5-chloro-2-methoxy-3-(6-methoxypyridin-3-yl)-4-methylphenyl)ethyl)imidazo[1,5-a]pyrazin-8-amine], for which the IC50 came to 2300 nM in assay [1] (setting [3]), 930 nM on PI3K (p110β/p85α) (setting [4]), 3.2 nM in assay [2] (setting [5]) and 740 nM at PI3K (p110γ) (setting [6]).
Take `COc1c(C(C)c2nc(Br)c3c(N)nccn23)cc(Cl)c(C)c1-c1ccc(Cl)nc1` (stereo not drawn) [Compound 22, 1-bromo-3-(1-(5-chloro-3-(6-chloropyridin-3-yl)-2-methoxy-4-methylphenyl)ethyl) imidazo[1,5-a]pyrazin-8-amine]: the IC50 in assay [1] (setting [3]) was found to be 1400 nM; at PI3K (p110β/p85α) (setting [4]), 390 nM; in assay [2] (setting [5]), 1.5 nM; at PI3K (p110γ) (setting [6]) it was 760 nM.
